The source of these data is patent publication US9566224B2, “Tyrosinase inhibitors” (Avon Products, Inc., priority 2013, dated 2017).

The assay deals with Mushroom tyrosinase. In words: Mushroom tyrosinase assay (conversion of L-Tyrosine to DOPAchrome). It counts as biochemical. The conditions noted are these: 25° C., 30 min, absorbance 492 nm. On the procedure:
Mushroom Tyrosinase Assay. Mushroom tyrosinase and L-Tyrosine were obtained from Sigma-Aldrich, Inc. (St. Louis, Mo.). The enzyme activity was measured in buffer containing 100 mM phosphate buffer pH 6.8, 5% absolute ethanol, 2 micrograms/milliliter mushroom tyrosinase, and 0.2 mg/ml L-Tyrosine. The reaction (conversion of L-Tyrosine to DOPAchrome) was conducted in triplicates at 25° C. for 30 min, and absorbance was then measured at 492 nm. Kojic Acid was used as a positive control inhibitor in these assays. Percent change in tyrosinase activity relative to vehicle control was calculated.

For the molecule `Oc1ccc(C=NNC(=S)NCC2CCCO2)c(O)c1` (centres unmarked) [AV6989], the “Tyrosinase Inhibition (percent change in tyrosinase activity compared to DMSO vehicle control)” value reads like this: (concentration 0.001%) −36%; (concentration 0.01%) −75%.
